Patent US20170190671A1, “BIS(ARYL)CATECHOL DERIVATIVES AS HERBICIDES” (E I DU PONT DE NEMOURS AND COMPANY, priority 2014, published 2017)

Key:
Experiment in all cases: Test C preemergence
Type in all cases: in vivo
[1] = tested on: barnyardgrass (Echinochloa crus-galli); conditions: Echinochloa crus-galli, pre-emergence, preemergence, scale 0 to 100, read-out: Plant response rating, Barnyardgrass
Summary of the method: (§1)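 Greenhouse test, preemergence on seeded soil or postemergence on 1- to 4-leaf plants. Response is a visual 0-100 rating versus controls, taken 13-15 days after treatment.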

[2] = tested on: giant foxtail (Setaria faberii); conditions: Setaria faberi, pre-emergence, 336 h, preemergence, scale 0 to 100, read-out: Plant response rating, Foxtail, Giant
Summary of the method: as §1

[3] = tested on: pigweed (Amaranthus retroflexus); conditions: Amaranthus retroflexus, pre-emergence, 336 h, preemergence, scale 0 to 100, read-out: Plant response rating, Pigweed
Summary of the method: as §1

[4] = tested on: lambsquarters (Chenopodium album); conditions: Chenopodium album, pre-emergence, 336 h, preemergence, scale 0 to 100, read-out: Plant response rating, Lambsquarters
Summary of the method: as §1

corn (Zea mays) = conditions: Zea mays, pre-emergence, 336 h, preemergence, scale 0 to 100
Summary of the method: as §1

soybean (Glycine max) = conditions: Glycine max, pre-emergence, preemergence, scale 0 to 100, read-out: Plant response rating, Soybean
Summary of the method: as §1

[5] = tested on: ragweed (common ragweed, Ambrosia elatior); conditions: Ambrosia artemisiifolia, pre-emergence, 336 h, preemergence, scale 0 to 100, read-out: Plant response rating, Ragweed
Summary of the method: as §1

[6] = tested on: large (Lg) crabgrass (Digitaria sanguinalis); conditions: Digitaria sanguinalis, pre-emergence, 336 h, preemergence, scale 0 to 100, read-out: Plant response rating, Crabgrass, Large
Summary of the method: as §1

[7] = tested on: velvetleaf (Abutilon theophrasti); conditions: Abutilon theophrasti, pre-emergence, preemergence, scale 0 to 100, read-out: Plant response rating, Velvetleaf
Summary of the method: as §1

[8] = tested on: yellow nutsedge (Cyperus esculentus); conditions: Cyperus, pre-emergence, 336 h, preemergence, scale 0 to 100, read-out: Plant response rating, Nutsedge, Yellow
Summary of the method: as §1

[9] = tested on: blackgrass (Alopecurus myosuroides); conditions: Alopecurus myosuroides, pre-emergence, 336 h, preemergence, scale 0 to 100, read-out: Plant response rating, Blackgrass
Summary of the method: as §1

[10] = tested on: winter wheat (Triticum aestivum); conditions: Triticum aestivum, pre-emergence, 336 h, preemergence, scale 0 to 100, read-out: Plant response rating, Wheat
Summary of the method: as §1

[11] = tested on: johnsongrass (Sorghum halepense); conditions: Sorghum halepense, pre-emergence, 336 h, preemergence, scale 0 to 100, read-out: Plant response rating, Johnsongrass
Summary of the method: as §1

[12] = tested on: Italian ryegrass (Lolium multiflorum); conditions: Lolium multiflorum, pre-emergence, 336 h, preemergence, scale 0 to 100, read-out: Plant response rating, Ryegrass, Italian
Summary of the method: as §1

SMILES: Fc1cnc(Oc2c(F)cccc2Oc2ncc(Cl)cn2)nc1 [Compound 23]
- pest or weed control at 31 g/ha ([1]; 31 g ai/ha): 75%
- pest or weed control at 62 g/ha ([1]; 62 g ai/ha): 100%
- pest or weed control at 125 g/ha ([1]; 125 g ai/ha): 100%
- pest or weed control at 250 g/ha ([1]; 250 g ai/ha): 100%
- pest or weed control at 31 g/ha ([2]; 31 g ai/ha): 95%
- pest or weed control at 62 g/ha ([2]; 62 g ai/ha): 98%
- pest or weed control at 125 g/ha ([2]; 125 g ai/ha): 100%
- pest or weed control at 31 g/ha ([3]; 31 g ai/ha): 100%
- pest or weed control at 62 g/ha ([3]; 62 g ai/ha): 100%
- pest or weed control at 125 g/ha ([3]; 125 g ai/ha): 100%
- pest or weed control at 31 g/ha ([4]; 31 g ai/ha): 100%
- pest or weed control at 62 g/ha ([4]; 62 g ai/ha): 100%
- pest or weed control at 125 g/ha ([4]; 125 g ai/ha): 100%
- Corn plant response rating (crop injury, 0 = no effect, 100 = complete kill) at 31 g/ha (corn (Zea mays); 31 g ai/ha): 5%
- Corn plant response rating (crop injury, 0 = no effect, 100 = complete kill) at 62 g/ha (corn (Zea mays); 62 g ai/ha): 35%
- Corn plant response rating (crop injury, 0 = no effect, 100 = complete kill) at 125 g/ha (corn (Zea mays); 125 g ai/ha): 70%
- plant injury at 31 g/ha (soybean (Glycine max); 31 g ai/ha): 60%
- plant injury at 62 g/ha (soybean (Glycine max); 62 g ai/ha): 80%
- plant injury at 125 g/ha (soybean (Glycine max); 125 g ai/ha): 90%
- plant injury at 250 g/ha (soybean (Glycine max); 250 g ai/ha): 95%
- pest or weed control at 31 g/ha ([5]; 31 g ai/ha): 85%
- pest or weed control at 62 g/ha ([5]; 62 g ai/ha): 100%
- pest or weed control at 125 g/ha ([5]; 125 g ai/ha): 100%
- pest or weed control at 250 g/ha ([5]; 250 g ai/ha): 100%
- pest or weed control at 31 g/ha ([6]; 31 g ai/ha): 100%
- pest or weed control at 62 g/ha ([6]; 62 g ai/ha): 100%
- pest or weed control at 125 g/ha ([6]; 125 g ai/ha): 100%
- pest or weed control at 31 g/ha ([7]; 31 g ai/ha): 100%
- pest or weed control at 62 g/ha ([7]; 62 g ai/ha): 100%
- pest or weed control at 125 g/ha ([7]; 125 g ai/ha): 100%
- pest or weed control at 250 g/ha ([7]; 250 g ai/ha): 100%
- pest or weed control at 31 g/ha ([8]; 31 g ai/ha): 0%
- pest or weed control at 62 g/ha ([8]; 62 g ai/ha): 10%
- pest or weed control at 125 g/ha ([8]; 125 g ai/ha): 60%
- pest or weed control at 31 g/ha ([9]; 31 g ai/ha): 65%
- pest or weed control at 62 g/ha ([9]; 62 g ai/ha): 85%
- pest or weed control at 125 g/ha ([9]; 125 g ai/ha): 95%
- plant injury at 31 g/ha ([10]; 31 g ai/ha): 5%
- plant injury at 62 g/ha ([10]; 62 g ai/ha): 40%
- plant injury at 125 g/ha ([10]; 125 g ai/ha): 50%
- plant injury at 250 g/ha ([10]; 250 g ai/ha): 90%
- pest or weed control at 31 g/ha ([11]; 31 g ai/ha): 40%
- pest or weed control at 62 g/ha ([11]; 62 g ai/ha): 50%
- pest or weed control at 125 g/ha ([11]; 125 g ai/ha): 90%
- pest or weed control at 31 g/ha ([12]; 31 g ai/ha): 5%
- pest or weed control at 62 g/ha ([12]; 62 g ai/ha): 75%
- pest or weed control at 125 g/ha ([12]; 125 g ai/ha): 85%
- pest or weed control at 250 g/ha ([12]; 250 g ai/ha): 90%
